Measured values reported in PubChem BioAssay AID1159564 (GlaxoSmithKline (GSK), 2015).
The source made the active and inactive calls. No rule for the calls is given here.

Test system: L. donovani-infected THP-1 macrophages, intracellular amastigote imaging
Assay: intracellular L. donovani amastigote inhibition, imaging, THP-1 host macrophages, host toxicity (AID 1159564)
[1] = measured here: THP-1 host cell toxicity
[2] = measured here: amastigotes per macrophage

SMILES	IC50	IC50 [1] [µM]	IC50 [2] [µM]
Cc1ccc(S(=O)(=O)Nc2ccc(CN3CCN(C(=O)c4cccc(C)c4)CC3)cc2)cc1	40 µM	40	32
Cc1ccnc(NS(=O)(=O)c2ccc(NC(=O)c3ccc([N+](=O)[O-])s3)cc2)n1	10 µM	10	5
O=C(Nc1ccccc1C(=O)Nc1ccccn1)c1ccco1	> 50 µM (inactive)	> 50	> 50
Cc1nc(N2CCC(C(=O)N3CCC(O)(c4cccnc4)CC3)CC2)nc2ccc(C(C)C)cc12	50 µM	25	10
COc1ccc(C2=NCC(CSc3nnc(-c4ccc5c(c4)OCO5)o3)S2)cc1 (stereo not drawn)	1 µM	> 50	0.4
CC(C)COC(=O)Nc1ccc(N2CCC(CNS(=O)(=O)c3ccccc3)CC2)c(F)c1	2 µM	> 50	1.3
Cc1ccc2onc(Nc3ccnc(Nc4cccc(S(C)(=O)=O)c4)n3)c2c1	2 µM	20	1
Cn1nc(-c2ccc(NC(=O)Cc3ccccc3Cl)cc2)c2c(N)ncnc21	> 50 µM (inactive)	> 50	> 50
COc1cc(-c2noc(CC#N)n2)ccc1OC(F)F	> 50 µM (inactive)	50	> 50
Cc1nc(C(=O)Nc2ccc3c(c2)OCO3)nn1-c1ccc(Cl)cc1	2 µM	13	1.6
Cc1nn(-c2nc3ccccc3[nH]2)c2c1C(c1ccc(O)cc1)CC(=O)N2 (stereo not drawn)	1 µM	6.3	0.5
COc1ccc(C(=O)NC2CCN(CCn3c(=O)ccc4ncc(F)cc43)CC2)cc1Cl	> 50 µM (inactive)	> 50	16
O=C(NC(c1ccc(Cl)cc1)c1cnccn1)C1CCN(C(=O)Nc2cccc(C(F)(F)F)c2)CC1 (stereo not drawn)	> 50 µM (inactive)	40	> 50
Cc1nc(-c2ccncc2)ncc1C(C)NC(=O)c1ccc(Cl)s1 (stereo not drawn)	> 50 µM (inactive)	> 50	> 50
CCc1cccc(CC)c1-n1c(SCC(=O)NC(=O)NCc2ccco2)nnc1-c1cccnc1	> 50 µM (inactive)	> 50	> 50
Cc1[nH]nc(Nc2ccnc3[nH]ccc23)c1C	> 50 µM (inactive)	> 50	> 50
Cc1cc2ncn(-c3ccc([N+](=O)[O-])cc3C#N)c2cc1C	> 50 µM (inactive)	> 50	> 50
NC(N)=Nc1nc(-c2ccc(NC(N)=NCCN3CCCC3)cc2)cs1	> 50 µM (inactive)	> 50	> 50
COc1ccc2nc(N(Cc3cccnc3)C(=O)C3CCC3)sc2c1	> 50 µM (inactive)	> 50	50
Cc1ccccc1OCC(=O)N1CCCN(c2cccnn2)CC1	> 50 µM (inactive)	> 50	> 50
O=C(Cn1cnc2c(-c3ccccc3)csc2c1=O)N1CCCCC1	> 50 µM (inactive)	> 50	> 50
COc1ccc(CN(C)Cc2ccncc2)cc1-c1ccc(S(=O)(=O)NC2CCC2)s1	> 50 µM (inactive)	20	16
COc1ccc(NS(=O)(=O)c2ccc(S(=O)(=O)N(C)C3CCCCC3)cc2)c2ncccc12	0.32 µM	> 50	0.16

SMILES	IC50	IC50 [1] [µM]	IC50 [2] [µM]
Cc1[nH]nc(C(F)(F)F)c1NC(=O)CCn1cc(Cl)c([N+](=O)[O-])n1	> 50 µM (inactive)	16	> 50
NCc1csc(Nc2cc(Oc3ccccc3)ncn2)n1	25 µM	> 50	25
CCC(c1ccc(F)cc1)n1cncc1-c1cnn(C)c1 (stereo not drawn)	> 50 µM (inactive)	> 50	> 50
COc1ncc(-c2ccc3nccc(-c4ccncc4)c3c2)cc1NS(C)(=O)=O	2.5 µM	3.2	0.63
CC(C)(C)c1cc(NC2CC2)nc(-c2ccccn2)n1	2.5 µM	25	1.6
Cc1ccc(Nc2nc(C3CCCN3Cc3ccn[nH]3)cs2)nc1 (stereo not drawn)	1.6 µM	25	1.3
CNc1nc(C)nc(N2CCc3cc(C(=O)NCc4ccc(-c5ccn[nH]5)cc4Cl)ccc32)n1	0.32 µM	> 50	0.4
O=C(NCc1ccncc1)c1ccccc1N1CCCN(C(=O)Cc2ccc(F)c(F)c2)CC1	> 50 µM (inactive)	> 50	> 50
O=C(NCc1ccc(-n2cccc2)cc1)c1nc(Cn2ccc([N+](=O)[O-])n2)no1	> 50 µM (inactive)	> 50	> 50
Cn1c(CC(=O)NNC(=O)c2ccc3ccccc3n2)nc2ccccc21	1.3 µM	> 50	0.79
Cc1cc(NC(=O)C2CCCCC2)n(-c2nc3c(c(=O)[nH]2)CCC3)n1	5 µM	10	3.2
O=C(CSc1ccc(-c2ccccn2)nn1)Nc1ccc(Cl)cc1	> 50 µM (inactive)	> 50	> 50
COc1ccc2nccc(NC(=O)C3(OC)CCN(CC(O)c4ccc5c(c4)OCCO5)CC3)c2n1 (stereo not drawn)	20 µM	25	6.3
Cn1nc([N+](=O)[O-])nc1Oc1ccc(C(=O)c2ccccc2)cc1	> 50 µM (inactive)	> 50	> 50
CC(C)(C)CC(=O)NCCc1csc(-c2ccc(F)cc2)n1	32 µM	16	16
CC(C)n1c(-c2nonc2N)nc2cccc(OCCN3CCCC3)c21	32 µM	32	20
O=C(CSc1ccc(F)cc1)N[C@@H](Cc1cnc[nH]1)C(=O)NCCc1ccccc1	> 50 µM (inactive)	> 50	> 50
O=C(Nc1ccc(C(F)(F)F)cc1)NC1(C(=O)NCc2ccco2)CCCCC1	> 50 µM (inactive)	32	> 50
O=C(Nc1nc2cc(Cl)ccc2o1)c1cccc(Cl)c1	> 50 µM (inactive)	6.3	> 50
COc1cc(C2SCC(=O)Nc3c2c(C)nn3-c2nc3ccccc3s2)cc(OC)c1O (stereo not drawn)	0.32 µM	> 50	0.25
COCCn1c(-c2ccc3c(c2)OCO3)cnc1NCc1ccccc1OC	10 µM	40	5
O=C(CN(Cc1ccccn1)Cc1ccccn1)NCc1ccc2c(c1)OCO2	7.9 µM	> 79	6.3
COc1cccc(CCNC(=O)C(c2cn[nH]c2)N2CCN(c3ccc(Cl)cc3)CC2)c1 (stereo not drawn)	20 µM	25	10

SMILES	IC50	IC50 [1] [µM]	IC50 [2] [µM]
CN1CCN(c2nc(-c3ccc(Cl)cc3)c3c(N)n(C)nc3n2)CC1	40 µM	40	32
COc1ccc(Cc2nc(-c3ncc4cccnc4c3O)n[nH]2)cc1OC	3.2 µM	20	2.5
O=C(NCc1nnc2n1CCCCC2)c1ccc(-c2ccc(F)cc2)o1	> 50 µM (inactive)	> 50	> 50
Nc1nc(-c2ccccc2)cc(-c2nc3ncccc3[nH]2)n1	2.5 µM	> 50	2.5
CS(=O)(=O)c1ccccc1C(=O)N(Cc1ccccc1)c1ccccc1	> 50 µM (inactive)	> 50	16
COc1ccc2ncc(=O)n(CCN3CC[C@H](NCc4ncc(Cl)c5[nH]ncc45)[C@H](O)C3)c2n1	> 50 µM (inactive)	> 50	> 50
Cn1c(CN2CCN(c3ncc(C(F)(F)F)cc3Cl)CC2)nc2ccncc21	> 50 µM (inactive)	6.3	–
Fc1ccc(OC2CC(NCc3cccc4cn[nH]c34)C2)cc1C(F)(F)F (stereo not drawn)	7.9 µM	10	7.9
Cc1nc2c(-c3cccs3)c(C)nn2c(NCCO)c1C	> 50 µM (inactive)	> 50	> 50
Cc1nc2nc(C)c(Cc3ccc(C(C)C)cc3)c(=O)n2[nH]1	32 µM	> 50	16
CC(C)(C)CC(=O)NCc1noc(COc2ccccc2)n1	> 50 µM (inactive)	> 50	> 50
O=C(NCCc1cccnc1)c1csc(-c2ccccc2)n1	> 50 µM (inactive)	> 50	> 50
CC(C)CC(=O)NC(c1cccs1)c1ccc2cccnc2c1O (stereo not drawn)	7.9 µM	1.6	3.2
N#Cc1cccc(Cc2cc(Nc3cc(C4CC4)[nH]n3)nc(N3CC[C@H]3C(N)=O)n2)c1	0.2 µM	0.032	0.079
COc1ccc(C2CC(c3ccccc3Cl)=NN2C(=O)CNC(=O)C2CCCC2)cc1 (stereo not drawn)	> 50 µM (inactive)	> 50	> 50
Cc1c([N+](=O)[O-])c(C(=O)Nc2sc3c(c2C#N)CCC(C)C3)nn1C (stereo not drawn)	32 µM	> 50	16
O=C(NCCCn1cnc2ccccc21)c1ccc(NC(=O)c2ccco2)cc1	> 50 µM (inactive)	> 50	13
O=C1OCc2ccc(Nc3nccc(-c4cnn5ncccc45)n3)cc21	0.016 µM	0.0079	0.013
CC(C(=O)Nc1ccccc1F)N(C)CC(=O)Nc1cccc2ccccc12 (stereo not drawn)	> 50 µM (inactive)	> 50	> 50
O=C(Nc1nccs1)c1ccccc1Cn1cc([N+](=O)[O-])cn1	> 50 µM (inactive)	> 50	> 50
CCn1c(-c2nonc2N)nc2c([C@@H](C)O)ncc(O[C@H](CN)c3ccccc3)c21	5 µM	3.2	3.2
O=S(=O)(c1cccc(CSc2nnc(-c3ccc4c(c3)OCO4)o2)c1)N1CCOCC1	0.79 µM	> 50	0.25
